Where two headings read alike, the source gives them in different places. Values belong to the molecule of their own block, whether it stands above or below them.
Tests used:
[1] = pKa of dyes and complexes (fluorescence titration)
Text: By way of illustration, Table 1, below, lists a number of dyes, some prior to functionalisation, and complexes according to the present invention (in each X is O^−), together with their pKa values.

[2] = Fluorescence / colour response to pH; assay type: physicochemical; settings: on tlc, compared with 2-[3,6-bisdimethylaminoxanth-9-ylium]-5-dimethylaminophenol
Text: The dyes and complexes of the present invention show a negative fluorescence intensity response with increasing pH. […] Furthermore, the pals of these dyes and complexes may be varied by selection of the substituents R^5 and R^6, and by the inclusion of electron donating groups on the lowermost aryl ring, to give a range of dyes and complexes having pKa's particularly suited to cell analysis procedures.

- pKa [1]: 2.3
Molecule: COCCOCCN(CCOCCOC)c1ccc(-c2c3ccc(=[N+](CCOCCOC)CCOCCOC)cc-3oc3cc(N(CCOCCOC)CCOCCOC)ccc23)c([O-])c1

Molecule: 2-[3-diethylamino-6-dimethylamino-xanth-9-ylium]-5-dimethylaminophenol
- pH sensitivity [2]: same pH sensitivity

Molecule: R1-Y=NHCSNC6H4CH2CH2; target=transferin; R2=Et; R3=Me; R4=Me; R5-Y2=Et; R6=Et: complex of a dye of formula (I) bonded to transferin
- pKa ([1]; Table 1, X is O-, dyes and complexes): 2.0

— US8101655B2, “Fluorescent dyes and complexes” (priority 2004, dated 2012)
